Results as given in article PMC3636857, “Specific Activation of the G Protein-coupled Receptor BNGR-A21 by the Neuropeptide Corazonin from the Silkworm, Bombyx mori, Dually Couples to the Gq and Gs Signaling Cascades” (The Journal of Biological Chemistry, 2013).
Entries after “also recorded” stand apart in the source; their conditions may differ. Numbered stars: 1 amine (or outer) side, 2 acyl side, 3 side chain; on linkers, the order of the positions; unused ones are H or OH. Bridge positions count the residues as written; N and C are the ends. Square brackets hold non-standard residues; d marks the D form. Ends that are not written are not given here. Peptide text beside a SMILES is read from it. X1 = CC(=O)NC(C(=O)OC(C(C)C)C(N[*:1])C(=O)[*:2])C(O)C(C)C; rhodamine red = Rhodamine red fluorescent dye; PhLac = O=C(O)[CH](O)Cc1ccccc1; NMeT = CN[CH](C(=O)O)[CH](C)O; NMeA = CN[CH](C)C(=O)O; NMeDha = C=C(NC)C(=O)O

Assays:
BNGR-A21 (BmCrzR) [1] = assay: intracellular calcium measurement (fura-2) in HEK293 cells; format: cell-based, Bombyx mori; details: pretreatment with YM-254890 1 μM, U73122 10 μM, EGTA 5 mM, BAPTA-AM 50 μM or nifedipine 10 μM, corazonin (1 μM with YM-254890)
Experimental: (§1) The stable FLAG-A21- and BmFlag-A21-expressing HEK293 and Sf21 cells were washed twice with phosphate-buffered saline and resuspended at 5 × 10^6 cells/ml in Hanks' balanced salt solution. The cells were detached by a Nonenzymatic Cell Dissociation Solution (M&C Gene Technology, China) or 0.02% EGTA and then loaded with 3 μM Fura 2-AM (Dojindo Laboratories, Japan) for 30 min at 37 °C. Cells were washed twice in Hanks' solution and then resuspended in Hanks' solution at a concentration of 3 × 10^7 cells/ml. Calcium flux was measured using excitation wavelengths of 340 and 380 nm in a fluorescence spectrometer (Tecan Infinite 200 PRO, Switzerland).
(§2) FIGURE 4. Intracellular Ca^2+ influx. HEK293 (A) and Sf21 (B) cells, respectively, transfected with FLAG-A21 and BmFlag-A21 were measured in response to different concentrations of corazonin peptide using the fluorescent Ca^2+ indicator fura-2. C, effect of pretreatment of the Gq inhibitor on corazonin (1 μM)-mediated Ca^2+ influx in HEK293 cells. D, effects of pretreatment of calcium chelators (EGTA, 5 mM, and BAPTA-AM, 50 μM) and L-calcium channel (nefidipine, 10 μM) inhibitors on corazonin-mediated Ca^2+ influx in HEK293 cells. Effect of pretreatment of PLC inhibitor (U73122, 10 μM) on corazonin-mediated Ca^2+ influx in HEK293 (E) and Sf21 (F) cells. The figures are representative of more than three independent experiments.

BmCrzR (BNGR-A21) [2] = assay: CRE-driven luciferase assay of rhodamine-labeled corazonin; format: cell-based, Bombyx mori; details: Fig. 5A; CRE-driven luciferase system; rhodamine red-labeled peptide; read-out: activation of BmCrzR (CRE-driven luciferase), EC50
Experimental: After seeding in a 48-well plate overnight, HEK293 or Sf21 cells transiently or stably cotransfected with BNGR-A21 and pCRE-Luc were grown to 90–95% confluence, stimulated with the corazonin peptides in DMEM without FBS, and incubated for 4–6 h at 37 °C. Luciferase activity was detected by a firefly luciferase assay kit (KenReal, Shanghai, China). The cAMP concentration was assessed using a commercially available cAMP detection kit (R&D Systems).
All results are expressed as the mean ± S.E. Data were analyzed using nonlinear curve fitting (GraphPad Prism version 5.0) to obtain EC50 values. Statistical significance was determined using Student's t test. Probability values that were less than or equal to 0.05 were considered significant.
FIGURE 5. Direct interaction of BNGR-A21 with corazonin. A, rhodamine red-labeled [Lys^4]corazonin activity was assayed using the CRE-driven luciferase system. B, binding of Rho-[Lys^4]BmCrz to BNGR-A21 expressed in HEK293 cells was measured in the presence of different concentrations of unlabeled peptides or in the absence of unlabeled peptides (total binding). The extent of binding was determined by fluorescence intensity and is presented as a percentage of the total binding. The results represent the mean ± S.D. (n = 3).

BNGR-A21 (BmCrzR) [3] = format: cell-based, Bombyx mori
[4] = target: Bombyx neuropeptide G protein-coupled receptor A21 (BNGR-A21), N-terminal FLAG tag (Bombyx mori) (UniProt B3XXN4)
BmCrzR (BNGR-A21) [5] = assay: ERK1/2 activation assay in HEK293 cells stably expressing BmCrzR; format: cell-based, Bombyx mori; details: HEK293 cells stably transfected with BmCrzR; 1 h pretreatment (H89 10 μM, Go6983 10 μM, U0126 1 μM), then corazonin 1 nM, 5 min
CrzR in A. gambiae = tested on: CrzR in A. gambiae; set-up: method as in PMID 16616003; details: cited from earlier work
[6] = target: Bombyx neuropeptide G protein-coupled receptor A21 (BNGR-A21), N-terminal FLAG tag (Bombyx mori) (UniProt B3XXN4); remark: listed apart in the source
[7] = target: Bombyx neuropeptide G protein-coupled receptor A21 (BNGR-A21), N-terminal FLAG tag (Bombyx mori) (UniProt B3XXN4); assay: fluorescent ligand competition binding on whole cells; HEK293 cells stably expressing FLAG-A21 in poly-D-lysine-coated 96-well plates; labeled ligand (Rho-[Lys^4]BmCrz) with buffer or unlabeled ligand in PBS with 0.2% BSA, room temperature 90 min, washed with ice-cold PBS with 0.1% BSA; fluorescence intensity as percentage of total binding
[8] = target: Bombyx neuropeptide G protein-coupled receptor A21 (BNGR-A21), N-terminal FLAG tag (Bombyx mori) (UniProt B3XXN4); remark: listed apart in the source
BNGR-A21 (BmCrzR) [9] = assay: intracellular calcium measurement (fura-2) in Sf21 cells; format: cell-based, Bombyx mori; details: pretreatment with U73122 10 μM
Experimental: as §1, §2

Chain of Bombyx neuropeptide G protein-coupled receptor A21 (BNGR-A21), N-terminal FLAG tag (Bombyx mori) (B3XXN4 entry or part of it): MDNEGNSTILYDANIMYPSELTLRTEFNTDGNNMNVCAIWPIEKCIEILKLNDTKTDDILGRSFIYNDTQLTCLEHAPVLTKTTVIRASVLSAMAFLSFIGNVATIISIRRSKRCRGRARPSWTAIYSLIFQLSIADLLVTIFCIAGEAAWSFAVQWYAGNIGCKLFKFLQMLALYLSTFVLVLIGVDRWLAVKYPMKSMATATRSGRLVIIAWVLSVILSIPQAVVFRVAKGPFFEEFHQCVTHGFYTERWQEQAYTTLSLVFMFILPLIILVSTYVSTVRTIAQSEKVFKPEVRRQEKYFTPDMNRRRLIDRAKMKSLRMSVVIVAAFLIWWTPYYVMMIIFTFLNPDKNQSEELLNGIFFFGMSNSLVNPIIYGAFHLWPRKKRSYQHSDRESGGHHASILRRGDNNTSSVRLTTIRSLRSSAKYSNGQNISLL

For COC(=O)C1=C(C)NC(C)=C(C(=O)OC)C1c1ccccc1[N+](=O)[O-] [nifedipine], the “effect of inhibitor on corazonin-mediated Ca^2+ mobilization” value (“effect of inhibitor” below) (BNGR-A21 (BmCrzR) [1]) was “sensitive; also recorded: partially impaired”.
“Rho-[Lys^4]BmCrz: Q4K peptide conjugated with rhodamine red at the Lys residue (QTFK(rhodamine red)YSRGWTN; ends and bridges not checked; UniProt Q86N75 20-30, looked up, variant Q4K)” showed an EC50 (BmCrzR (BNGR-A21) [2]) of 86.1 nM.
With CC(=O)OCOC(=O)CN(CC(=O)OCOC(C)=O)c1ccccc1OCCOc1ccccc1N(CC(=O)OCOC(C)=O)CC(=O)OCOC(C)=O [BAPTA-AM] the “effect of inhibitor” value (BNGR-A21 (BmCrzR) [1]) was “sensitive; also recorded: partially impaired” and the “inhibition of BmCrz-induced luciferase activity” value (shortened to “inhibition”) (BNGR-A21 (BmCrzR) [3]) was “significantly inhibited”.
Molecule “Rhodamine red-labeled [Lys^4]BmCrz (peptide)” has a CRE-driven luciferase reporter; EC50 [4] of 86.1 nM.
With N#CC(=C(/N)Sc1ccccc1N)/C(C#N)=C(/N)Sc1ccccc1N [U0126] the “block of BmCrzR-mediated activation of ERK1/2” value (“block” below) (BmCrzR (BNGR-A21) [5]) was “significantly blocked; also recorded: significantly inhibited”.
For “endogenous corazonin: endogenous corazonin of A. gambiae (ref 22) (QTFQYSRGWTN; ends and bridges not checked; UniProt A0NDK8 21-31, looked up)”, the “selectivity of A. gambiae CrzR activation” value (CrzR in A. gambiae) is given as “only be activated by its endogenous corazonin” and the EC50 (CrzR in A. gambiae; read-out: activation of A. gambiae CrzR (cAMP accumulation), EC50) is given as 4 nM.
For COc1ccc2c(c1)c(C1=C(c3c[nH]c4ccccc34)C(=O)NC1=O)cn2CCCN(C)C [Go6983], the “block” value (BmCrzR (BNGR-A21) [5]) was “significantly blocked; also recorded: significantly inhibited” and the “inhibition” value (BNGR-A21 (BmCrzR) [3]) was “significantly inhibited”.
For pertussis toxin [PTX], the “effect of pretreatment on corazonin-stimulated cAMP generation” value (BNGR-A21 (BmCrzR) [3]) was “no effect on cAMP generation; also recorded: PTX-insensitive”.
In the case of cholera toxin [CTX], the “effect of stimulation with CTX on cellular levels of cAMP” value (BNGR-A21 (BmCrzR) [3]) is reported as “remarkable increase in the cellular levels of cAMP”.
In the case of “Bombyx mori corazonin ([Arg^7]corazonin) (peptide)”, the CRE-driven luciferase reporter (cAMP accumulation), dose response to corazonin, HEK293 cells co-transfected with FLAG-A21/CRE-Luc; EC50 [6] is reported as 4.5 nM, the CRE-driven luciferase reporter (cAMP accumulation), dose response to corazonin, Sf21 cells co-transfected with FLAG-A21/CRE-Luc; EC50 [6] is reported as 1 nM and the IC50 [7] is reported as 0.49 nM. For the same molecule, the ERK1/2 phosphorylation (Western blot), dose response to corazonin, HEK293 cells stably expressing BmCrzR; EC50 [8] was 1.4 nM and the ERK1/2 phosphorylation (Western blot), dose response to corazonin, Sf21 cells expressing BmCrzR; EC50 [8] was 4.7 nM.
With O=S(=O)(NCCNC/C=C/c1ccc(Br)cc1)c1cccc2cnccc12 [H89] the “block” value (BmCrzR (BNGR-A21) [5]) was “significantly blocked; also recorded: significantly inhibited” and the “inhibition” value (BNGR-A21 (BmCrzR) [3]) was “significantly inhibited; also recorded: sensitive”.
In the case of C=C1C(=O)NC(C)C(=O)N(C)C(C)C(=O)NC(C(OC(=O)C(NC(C)=O)C(O)C(C)C)C(C)C)C(=O)N(C)C(C(C)OC)C(=O)OC(C)C(NC(C)=O)C(=O)OC(Cc2ccccc2)C(=O)N1C (centres unmarked) [YM-254890] (Ac-T[PhLac][NMeDha]A[NMeA][X1][NMeT](Me); ester 1-C; configuration not given here), the “effect of inhibitor” value (BNGR-A21 (BmCrzR) [1]) is reported as “significant decrease in the intracellular Ca^2+ mobilization; also recorded: significantly blocked” and the “inhibition” value (BNGR-A21 (BmCrzR) [3]) is reported as “significantly inhibited; also recorded: sensitive”.
For COc1ccc2c(c1)CC[C@@H]1[C@@H]2CC[C@]2(C)[C@@H](NCCCCCCN3C(=O)C=CC3=O)CC[C@@H]12 [U73122], the “effect of inhibitor” value (BNGR-A21 (BmCrzR) [1]) was “sensitive; also recorded: significantly blocked”, the “effect of inhibitor” value (BNGR-A21 (BmCrzR) [9]) was “sensitive” and the “inhibition” value (BNGR-A21 (BmCrzR) [3]) was “significantly inhibited”.
For O=C(O)CN(CCOCCOCCN(CC(=O)O)CC(=O)O)CC(=O)O [EGTA], the “effect of inhibitor” value (BNGR-A21 (BmCrzR) [1]) was “sensitive; also recorded: partially impaired” and the “inhibition” value (BNGR-A21 (BmCrzR) [3]) was “significantly inhibited”.
